Assay results taken from ChEMBL document CHEMBL5390203, “Identification of Obscurolide-Type Metabolites and Antifungal Metabolites from the Termite-Associated Streptomyces neopeptinius BYF101” (2023).
Converted amounts (≈) assume the structure as drawn. The source made the active and inactive calls. The rule behind the calls is not given here.

Columns and labels:
Cryptococcus neoformans = test: Antifungal activity against Cryptococcus neoformans H99 assessed as fungal growth inhibition incubated for 2 days by broth serial dilution method; assay type: functional; settings: H99, 48 h, time 2 day
Candida albicans = test: Antifungal activity against Candida albicans SC5314 assessed as fungal growth inhibition incubated for 2 days by broth serial dilution method; assay type: functional; settings: for Activity: time 2.0 day

## CC(C)[C@@H]1NC(=O)[C@@H]2CCCN2C1=O
Cryptococcus neoformans
  MIC: 100 µg/mL (≈ 510 µM)
Candida albicans
  Activity: inactive

## O=C1[C@H](Cc2ccccc2)NC(=O)[C@]2(O)CCCN12
Cryptococcus neoformans
  MIC: 50 µg/mL (≈ 192 µM)
Candida albicans
  Activity: inactive

## CC(C)C[C@@H]1NC(=O)[C@@H]2CCCN2C1=O
Cryptococcus neoformans
  MIC: 50 µg/mL (≈ 238 µM)
Candida albicans
  Activity: inactive

## O=c1[nH]c2ccccc2o1 [BENZOXAZOLINONE]
Cryptococcus neoformans
  MIC: 25 µg/mL (≈ 185 µM)
Candida albicans
  Activity: inactive

## Cc1c(C(=O)O)c(O)cc2c1C(=O)c1c(O)cc(O)cc1C2=O
Cryptococcus neoformans
  MIC: 100 µg/mL (≈ 318 µM)
Candida albicans
  Activity: inactive

## C[C@]1(O)CC(=O)c2c(cc3cccc(O)c3c2O)C1
Cryptococcus neoformans
  MIC: 50 µg/mL (≈ 194 µM)
Candida albicans
  Activity: inactive

## Cc1cc(O)cc2cc3c(c(O)c12)C(=O)CC[C@@H]3O
Cryptococcus neoformans
  MIC: 50 µg/mL (≈ 194 µM)
Candida albicans
  Activity: inactive

## CC(C)C[C@@H]1NC(=O)[C@H](C(C)C)NC1=O
Cryptococcus neoformans
  MIC: 50 µg/mL (≈ 236 µM)
Candida albicans
  Activity: inactive

## CC(=O)CC[C@@H]1OC(=O)C[C@H]1Nc1ccc(C(=O)O)cc1
Cryptococcus neoformans
  MIC: 50 µg/mL (≈ 172 µM)
Candida albicans; SC5314, 48 h, time 2 day
  MIC: > 100 µg/mL

## CC(=O)NCCc1c[nH]c2ccccc12 [NB-ACETYLTRYPTAMINE]
Cryptococcus neoformans
  MIC: 200 µg/mL (≈ 989 µM)
Candida albicans
  Activity: inactive

## O=C(O)c1c[nH]c2ccccc12
Cryptococcus neoformans
  MIC: 12 µg/mL (≈ 74.5 µM)
Candida albicans
  Activity: inactive

## C[C@@H]1NC(=O)[C@H](Cc2ccccc2)NC1=O
Cryptococcus neoformans
  MIC: 100 µg/mL (≈ 458 µM)
Candida albicans
  Activity: inactive

## O=C1N[C@@H](Cc2ccccc2)C(=O)N2C[C@H](O)C[C@@H]12
Cryptococcus neoformans
  MIC: 50 µg/mL (≈ 192 µM)
Candida albicans
  Activity: inactive

## O=C1CNC(=O)[C@H](Cc2ccccc2)N1
Cryptococcus neoformans
  MIC: 50 µg/mL (≈ 245 µM)
Candida albicans
  Activity: inactive

## Cc1c(C(=O)O)c(O)cc2c1C(=O)c1c(O)cccc1C2=O
Cryptococcus neoformans
  MIC: 100 µg/mL (≈ 335 µM)
Candida albicans
  Activity: inactive

## CC(C)C[C@@H]1NC(=O)[C@@H]2C[C@@H](O)CN2C1=O
Cryptococcus neoformans
  MIC: 25 µg/mL (≈ 110 µM)
Candida albicans
  Activity: inactive

## C[C@H](O)/C=C/[C@@H]1OC(=O)C[C@H]1Nc1ccc(C(=O)O)cc1
Cryptococcus neoformans
  MIC: 100 µg/mL (≈ 343 µM)
Candida albicans
  Activity: inactive

## C/C=C/[C@H](O)[C@@H]1OC(=O)C[C@H]1Nc1ccc(C(=O)O)cc1
Cryptococcus neoformans
  MIC: 25 µg/mL (≈ 85.8 µM)
Candida albicans
  Activity: inactive

## CC(C)C[C@@H]1NC(=O)CNC1=O
Cryptococcus neoformans
  MIC: 25 µg/mL (≈ 147 µM)
Candida albicans
  Activity: inactive

## OC(Cn1cncn1)(Cn1cncn1)c1ccc(F)cc1F [FLUCONAZOLE]
Cryptococcus neoformans
  MIC: 4 µg/mL (≈ 13.1 µM)

## CC(=O)Nc1ccccc1O
Cryptococcus neoformans
  MIC: 50 µg/mL (≈ 331 µM)
Candida albicans
  Activity: inactive
